The results in this text go back to patent publication US7132425B2, “5-substituted-six-membered heteroaromatic glucokinase activators” (Hoffmann-La Roche Inc., priority 2002, dated 2006).

Tested on in one data set: not given
Assay: not given
Conditions: not given
As to `CS(=O)(=O)c1ccc([C@@H](CC2CCCC2)C(=O)Nc2cnc(-c3ccsc3)cn2)cc1Cl` [Example 77, 2(R)-(3-Chloro-4-methanesulfonyl-phenyl)-3-cyclopentyl-N-(5-thiophen-3-yl-pyrazin-2-yl)-propionamide], the melting point fell in the range of 96 to 102 °C.
Still for that read-out and setting: the figure for `CS(=O)(=O)c1ccc([C@@H](CC2CCCC2)C(=O)Nc2cnc(C[C@@H](O)CO)cn2)cc1Cl` [Example 82, 2(R)-(3-chloro-4-methanesulfonyl-phenyl)-3-cyclopentyl-N-[5-(2(R),3-dihydroxy-propyl)-pyrazin-2-yl]-propionamide] is 64 to 69 °C.
Same read-out and setting: for `CN(C)S(=O)(=O)c1cnc(NC(=O)[C@H](CC2CCCC2)c2ccc(S(C)(=O)=O)c(Cl)c2)cn1` [Example 9, 2(R)-(3-Chloro-4-methanesulfonyl-phenyl)-3-cyclopentyl-N-(5-dimethylsulfamoyl-pyrazin-2-yl)-propionamide] the value was 100.2 °C; for `CS(=O)(=O)c1ccc([C@@H](CC2CCCC2)C(=O)Nc2cnc(C[C@H](O)CO)cn2)cc1Cl` [Example 81, 2(R)-(3-Chloro-4-methanesulfonyl-phenyl)-3-cyclopentyl-N-[5-(2(S),3-dihydroxy-propyl)-pyrazin-2-yl]-propionamide], 61 to 65 °C; for `Cc1noc(-c2cnc(NC(=O)[C@H](CC3CCCC3)c3ccc(S(C)(=O)=O)c(Cl)c3)cn2)n1` [Example 35, 2(R)-(3-Chloro-4-methanesulfonyl-phenyl)-3-cyclopentyl-N-[5-(3-methyl-[1,2,4]oxadiazol-5-yl)-pyrazin-2-yl]-propionamide], 101 to 105 °C.
Still for that read-out and setting: the figure for `CS(=O)(=O)c1ccc([C@@H](CC2CCCC2)C(=O)Nc2cnc(-c3ccc(C#N)s3)cn2)cc1Cl` [Example 79, 2(R)-(3-Chloro-4-methanesulfonyl-phenyl)-N-[5-(5-cyano-thiophen-2-yl)-pyrazin-2-yl]-3-cyclopentyl-propionamide] is 101 to 107 °C; for `CS(=O)(=O)c1ccc(C(CC2CCCC2)C(=O)Nc2cnc(/C(C#N)=N\O)cn2)cc1Cl` (stereo not drawn) [Example 37, 2-(3-Chloro-4-methanesulfonyl-phenyl)-N-[5-(cyano-hydroxyimino-methyl)-pyrazin-2-yl]-3-cyclopentyl-propionamide] it is 130 to 133 °C.
`CSCc1cnc(NC(=O)C(CC2CCCC2)c2ccc(S(C)(=O)=O)c(Cl)c2)cn1` (stereo not drawn) [Example 30, 2-(3-Chloro-4-methanesulfonyl-phenyl)-3-cyclopentyl-N-(5-methylsulfanylmethyl-pyrazin-2-yl)-propionamide] registered a melting point of 70 to 75 °C.
`CN(C)Cc1cnc(NC(=O)[C@H](CC2CCCC2)c2ccc(S(C)(=O)=O)c(Cl)c2)cn1` [Example 32, 2(R)-(3-Chloro-4-methanesulfonyl-phenyl)-3-cyclopentyl-N-(5-dimethylaminomethyl-pyrazin-2-yl)-propionamide] registered a melting point of 88 to 91.5 °C.
Still for that read-out and setting: the figure for `Cc1nc(-c2cnc(NC(=O)C(CC3CCCC3)c3ccc(S(C)(=O)=O)c(Cl)c3)cn2)no1` (stereo not drawn) [Example 33, 2-(3-Chloro-4-methanesulfonyl-phenyl)-3-cyclopentyl-N-[5-(5-methyl-[1,2,4]oxadiazyl-3-yl)-pyrazin-2-yl]-propionamide] is 101.9 to 104.8 °C; for `CC(=O)c1cnc(NC(=O)[C@H](CC2CCCC2)c2ccc(S(C)(=O)=O)c(Cl)c2)cn1` [Example 39, N-(5-Acetyl-pyrazin-2-yl)-2(R)-(3-chloro-4-methanesulfonyl-phenyl)-3-cyclopentyl-propionamide] it is 77 to 80 °C.
The same measure, in the same setting: for `CSCc1cnc(NC(=O)[C@H](CC2CCCC2)c2ccc(S(C)(=O)=O)c(Cl)c2)cn1` [Example 36, 2(R)-(3-Chloro-4-methanesulfonyl-phenyl)-3-cyclopentyl-N-(5-methylsulfanylmethyl-pyrazin-2-yl)-propionamide] the value was 75 to 76.7 °C.

A further data set deals with C57BL/6J mice. The data set is described as follows: Glucokinase activator in vivo screen (blood glucose after oral dosing). Conditions: oral gavage 50 mg/kg after two hour fast, readings 1, 2, 4 and 6 hours post dose, p≦0.05 for two consecutive assay time points. As for the experimental part:
Glucokinase Activator in vivo Screen Protocol: C57BL/6J mice are orally dosed via gavage with Glucokinase (GK) activator at 50 mg/kg body weight following a two hour fasting period. Blood glucose determinations are made five times during the six hour post-dose study period.
Mice (n=6) are weighed and fasted for a two hour period prior to oral treatment.
For the compound `Cc1cc([C@@H](CC2CCCC2)C(=O)Nc2cnc(C#CC3(O)CCOCC3)cn2)ccc1S(C)(=O)=O` [Example 59, 3-Cyclopentyl-N-[5-(4-hydroxy-tetrahydro-pyran-4-ylethynyl)-pyrazin-2-yl]-2(R)-(4-methanesulfonyl-3-methyl-phenyl)-propionamide], the “decrease in blood glucose compared to vehicle” value (from here on “decrease in blood glucose”) was “statistically significant (p≦0.05) decrease in blood glucose”.
On the same count and under the same terms, for `Cc1cc([C@@H](CC2CCCC2)C(=O)Nc2cnc([C@H](O)CO)cn2)ccc1S(C)(=O)=O` [Example 58, 3-Cyclopentyl-N-[5-1(S),2-dihydroxy-ethyl]-2(R)-(4-methanesulfonyl-3-methyl)-propionamide] the value was “statistically significant (p≦0.05) decrease in blood glucose”.
On the same count and under the same terms, the entry for `CS(=O)(=O)c1ccc([C@@H](CC2CCCC2)C(=O)Nc2cnc(C3OCCO3)cn2)cc1Cl` [Example 41, 2(R)-(3-Chloro-4-methanesulfonyl-phenyl)-3-cyclopentyl-N-(5-[1,3]dioxolan-2-yl-pyrazin-2-yl)-propionamide] is “statistically significant (p≦0.05) decrease in blood glucose”; for `CS(=O)(=O)c1ccc([C@@H](CC2CCCC2)C(=O)Nc2cnc(C#CC3(O)CCOCC3)cn2)cc1` [Example 46, 3-Cyclopentyl-N-5-[(4-hydroxy-tetrahydropyran-4-yl-ethynyl)pyrazin-2-yl]-2(R)-(4-methanesulfonyl-phenyl)-propionamide] it is “statistically significant (p≦0.05) decrease in blood glucose”.
For the compound `CS(=O)(=O)c1ccc([C@@H](CC2CCCC2)C(=O)Nc2cnc([C@H](O)CO)cn2)cc1Cl` [Example 54, 2(R)-(3-Chloro-4-methanesulfonyl-phenyl)-3-cyclopentyl-N-[5-(1(S),2-dihydroxy-ethyl)-pyrazin-2-yl]-propionamide], the “decrease in blood glucose” value is “statistically significant (p≦0.05) decrease in blood glucose”.
As for `CN(C)CCCc1cnc(NC(=O)[C@H](CC2CCCC2)c2ccc(S(C)(=O)=O)c(Cl)c2)cn1` [Example 16, 2(R)-(3-Chloro-4-methanesulfonyl-phenyl)-3-cyclopentyl-N-[5-(3-dimethylamino-propyl)-pyrazin-2-yl]-propionamide], the “decrease in blood glucose” value is reported as “statistically significant (p≦0.05) decrease in blood glucose”.
Still for that read-out and setting: the entry for `CS(=O)(=O)c1ccc([C@@H](CC2CCCC2)C(=O)Nc2cnc(C(O)C#N)cn2)cc1Cl` (stereo partly drawn) [Example 26, 2(R)-(3-Chloro-4-methanesulfonyl-phenyl)-N-[5-(cyano-hydroxy-methyl)-pyrazin-2-yl]-3-cyclopentyl-propionamide] is “statistically significant (p≦0.05) decrease in blood glucose”.
On the same count and under the same terms, for `CS(=O)(=O)c1ccc([C@@H](CC2CCCC2)C(=O)Nc2cnc(NCCO)cn2)cc1Cl` [Example 73, 2(R)-(3-Chloro-4-methanesulfonyl-phenyl)-3-cyclopentyl-N-[5-(2-hydroxy-ethylamino)-pyrazin-2-yl]-propionamide] the value was “statistically significant (p≦0.05) decrease in blood glucose”; for `CS(=O)(=O)c1ccc([C@@H](CC2CCCC2)C(=O)Nc2cnc(C#CCCO)cn2)cc1Cl` [Example 53, 2(R)-(3-Chloro-4-methanesulfonyl-phenyl)-3-cyclopentyl-N-[5-(4-hydroxy-but-1-ynyl)-pyrazin-2-yl]-propionamide], “statistically significant (p≦0.05) decrease in blood glucose”; for `CC(C)(O)C#Cc1cnc(NC(=O)[C@H](CC2CCCC2)c2ccc(S(C)(=O)=O)cc2)cn1` [Example 61, 3-Cyclopentyl-2(R)-(4-methanesulfonyl-phenyl)-N-[5-(3-hydroxy-3-methyl-but-1-ynyl)-pyrazin-2-yl]-propionamide], “statistically significant (p≦0.05) decrease in blood glucose”.
On the same count and under the same terms, the entry for `COC(OC)c1cnc(NC(=O)[C@H](CC2CCCC2)c2ccc(S(C)(=O)=O)c(Cl)c2)cn1` [Example 21, 2(R)-(3-Chloro-4-methanesulfonyl-phenyl)-3-cyclopentyl-N-(5-dimethoxymethyl-pyrazin-2-yl)-propionamide] is “statistically significant (p≦0.05) decrease in blood glucose”; for `Cc1cc([C@@H](CC2CCCC2)C(=O)Nc2cnc(C#CC(C)(C)O)cn2)ccc1S(C)(=O)=O` [Example 57, 3-Cyclopentyl-N-[5-(3-hydroxy-3-methyl-but-1-ynyl)-pyrazin-2-yl]-2(R)-(4-methanesulfonyl-3-methyl-phenyl)-propionamide] it is “statistically significant (p≦0.05) decrease in blood glucose”; for `CS(=O)(=O)c1ccc([C@@H](CC2CCCC2)C(=O)Nc2cnc(C3=CCCCO3)cn2)cc1Cl` [Example 75, 2(1R)-(3-Chloro-4-methanesulfonyl-phenyl)-3-cyclopentyl-N-[5-(5,6-dihydro-4H-pyran-2-yl)-pyrazin-2-yl]-propionamide] it is “statistically significant (p≦0.05) decrease in blood glucose”.
Consider `CS(=O)(=O)c1ccc([C@@H](CC2CCCC2)C(=O)Nc2cnc(C#CCO)cn2)cc1Cl` [Example 10, 2(R)-(3-Chloro-4-methanesulfonyl-phenyl)-3-cyclopentyl-N-[5-(3-hydroxy-prop-1-ynyl)-pyrazin-2-yl]-propionamide], for which the “decrease in blood glucose” value is recorded as “statistically significant (p≦0.05) decrease in blood glucose”.
Same read-out and setting: for `CS(=O)(=O)c1ccc([C@@H](CC2CCCC2)C(=O)Nc2cnc(-c3ccco3)cn2)cc1Cl` [Example 70, 2(R)-(3-Chloro-4-methanesulfonyl-phenyl)-3-cyclopentyl-N-(5-furan-2-yl-pyrazin-2-yl)-propionamide] the value was “statistically significant (p≦0.05) decrease in blood glucose”.

As usually defined, the melting point is the temperature, or range, at which the solid turns liquid.
